Measured values published in patent publication US12377083B2 (WUHAN LL SCIENCE AND TECHNOLOGY DEVELOPMENT CO., LTD., priority 2019, dated 2025).

Experiments:
[1] = In vitro metabolic stability, human liver microsomes; type: in vitro ADME; conditions: 1 mg/mL liver microsome protein, 37° C., read-out: Metabolism in human liver microsome T½ min
Method: (§1) The in vitro metabolic stability of the compounds disclosed herein was determined through incubation of liver microsomes of various species. A proper amount of test compound was added into a liver microsome reaction system (1 mg/mL liver microsome protein, 25 U/mL glucose-6 phosphate dehydrogenase, 1 mM NADP, 6 mM D-glucose 6-phosphate and 5 mM MgCl2), and then the mixture was incubated in a water bath kettle at 37° C. to start reaction. At each time point, 100 μL of the reaction system was added into a centrifuge tube containing 400 μL of internal standard working solution (containing a 200 ng/mL solution of dexamethasone, diclofenac, tolbutamide and labetalol in acetonitrile) precooled at 0° C. so as to stop the reaction, and the mixture was then centrifuged at 10,000 g for 10 min at 4° C. The supernatant was collected for LC-MS assay so as to obtain the values of in vitro metabolic half-life of the test compounds in liver microsomes of various species.

[2] = In vitro metabolic stability, rat liver microsomes; type: in vitro ADME; conditions: 1 mg/mL liver microsome protein, 37° C., read-out: Metabolism in rat liver microsome T½ min
Method: as §1

[3] = In vitro cytotoxicity assay in HepG2 cells, CCK-8 method; type: cell-based; conditions: human
Method: In vitro cytotoxicity assay for the compounds disclosed herein was performed in HepG2 cells using the CCK-8 method. HepG2 cells (Beina Bio) in the logarithmic growth phase were collected, the concentration of cell suspension was adjusted, and then the cells were plated on a 96-well cell culture plate at 50,000 cells/well. The cells were then incubated overnight in a cell incubator (5% CO2, 37° C.), and after 80-90% cell confluence was achieved, test compounds or vehicle (DMSO) at various concentration gradients were added after medium change. The resulting mixture was incubated in the cell incubator (5% CO2, 37° C.) for 48 h. After the treatment, the medium in the plate was discarded. The plate was washed twice with PBS, added with CCK-8 working solution (Beyotime) at 100 μL per well, and then incubated at 37° C. for 1.5 h away from the light. Absorbance at OD450 nm was measured for each well on a microplate reader, and CC50 value of each compound was analyzed and calculated.

[4] = In vitro metabolic stability, mouse liver microsomes; type: in vitro ADME; conditions: 1 mg/mL liver microsome protein, 37° C., read-out: Metabolism in mouse liver microsome T½ min
Method: as §1

[5] = system: A2058 (human melanoma cells); assay: A2058 cell scratch (migration) assay with LPA; type: cell-based; conditions: 10 μM LPA, scratch area at 24 h
[6] = molecular target: hLPAR1 (human lysophosphatidic acid receptor 1) (Homo sapiens, UniProt Q92633); assay: FLIPR assay of intracellular calcium increase induced by activation of hLPAR1 expressed in CHO-K1 cells; type: cell-based; conditions: CHO-K1 cells expressing hLPAR1, agonist oleoyl-L-α-lysophosphatidic acid 1 μM; read-out: LPAR1 IC50
Sequence of hLPAR1 (human lysophosphatidic acid receptor 1) (Q92633 whole entry): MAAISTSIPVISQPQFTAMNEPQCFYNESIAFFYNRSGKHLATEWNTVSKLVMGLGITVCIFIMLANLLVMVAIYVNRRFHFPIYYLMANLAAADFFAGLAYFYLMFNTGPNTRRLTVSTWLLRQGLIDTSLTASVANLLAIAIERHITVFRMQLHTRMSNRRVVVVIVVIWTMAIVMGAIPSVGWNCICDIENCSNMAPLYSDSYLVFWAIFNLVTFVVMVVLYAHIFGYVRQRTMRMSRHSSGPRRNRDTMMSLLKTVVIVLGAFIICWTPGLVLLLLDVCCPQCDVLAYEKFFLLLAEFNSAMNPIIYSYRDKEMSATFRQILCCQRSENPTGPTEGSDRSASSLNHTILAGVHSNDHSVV
Method in brief: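 CHO-K1 cells expressing hLPAR1 were loaded with Fluo-4 AM for 1.0 h at 37° C, then preincubated 30 min at room temperature with compound. Oleoyl-LPA was added at 1 μM final, and calcium fluorescence was recorded by FLIPR for 2 min at 1-s intervals to assess antagonism.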

| Structure (SMILES) | half-life [1] | half-life [2] | half-life [4] | IC50 [6] | CC50 at 48 h [3] | Cell migration inhibition rate (%) [5] |
| --- | --- | --- | --- | --- | --- | --- |
| Cc1noc(-c2ccc(O[C@H]3CCC[C@H](C(=O)O)C3)cc2)c1COC(=O)N(C)C1CCCC1 (racemic) [Compound 4, (+/−)-(1S,3S)-3-(4-(4-(((cyclopentyl(methyl)carbamoyl)oxy)methyl)-3-methylisoxazol-5-yl)phenoxy)cyclohexane-1-carboxylic Acid] | 2.19 h | 0.218 h | 2.79 h |  | > 200 µM |  |
| CN(C(=O)OCc1ocnc1-c1ccc(O[C@H]2CCC[C@H](C(=O)O)C2)cc1)C1CCCC1 (racemic) [Compound 8, (+/−)-(1S,3S)-3-(4-(5-(((cyclopentyl(methyl)carbamoyl)oxy)methyl)oxazol-4-yl)phenoxy)cyclohexane-1-carboxylic Acid] | > 0.5 h | > 0.5 h | > 0.5 h | 0.3 to 10 µM | > 200 µM | C (C: 0-30%) |
| CN(C(=O)OCc1c(-c2ccc(O[C@H]3CCC[C@H](C(=O)O)C3)cc2)cnn1C)C1CCCC1 (racemic) [Compound 11, (+/−)-(1S,3S)-3-(4-(5-(((cyclopentyl(methyl)carbamoyl)oxy)methyl)-1-methyl-1H-pyrazol-4-yl)phenoxy)cyclohexane-1-carboxylate] | > 0.5 h | > 0.5 h | > 0.5 h |  | > 200 µM | A (A: 50-70%) |
| CN(C(=O)OCc1c(-c2ccc(O[C@H]3CCC[C@H](C(=O)O)C3)c(C(F)(F)F)n2)cnn1C)C1CCCC1 (racemic) [Compound 13, (+/−)-(1S,3S)-3-((6-(5-(((cyclopentyl(methyl)carbamoyl)oxy)methyl)-1-methyl-1H-pyrazol-4-yl)-2-(trifluoromethyl)pyridin-3-yl)oxy)cyclohexane-1-carboxylic Acid] | 1.15 h | 0.287 h | 3.55 h | 0.05 to 0.3 µM | > 200 µM | B (B: 30-50%) |
| CN(C(=O)OCc1ocnc1-c1ccc(O[C@H]2CCC[C@H](C(=O)O)C2)cn1)C1CCCC1 (racemic) [Compound 14] | > 0.5 h | > 0.5 h | > 0.5 h | 0.3 to 10 µM | > 200 µM | C (C: 0-30%) |
| CN(C(=O)OCc1ocnc1-c1ccc(O[C@H]2CCC[C@H](C(=O)O)C2)c(F)c1)C1CCCC1 (racemic) [Compound 15, (+/−)-(1S,3S)-3-(4-(5-(((cyclopentyl(methyl)carbamoyl)oxy)methyl)oxazol-4-yl)-2-fluorophenoxy)cyclohexane-1-carboxylic Acid] | > 0.5 h | > 0.5 h | > 0.5 h | 0.3 to 10 µM | > 200 µM | C (C: 0-30%) |
| CN(C(=O)OCc1c(-c2ccc(O[C@H]3CCC[C@H](C(=O)O)C3)c(Cl)n2)cnn1C)C1CCCC1 (racemic) [Compound 61, (+/−)-(1S,3S)-3-((2-chloro-6-(5-(((cyclopentyl(methyl)carbamoyl)oxy)methyl)-1-methyl-1H-pyrazol-4-yl)pyridin-3-yl)oxy)cyclohexane-1-carboxylic Acid] |  |  |  | < 0.05 µM | > 200 µM | A (A: 50-70%) |
| Cc1nc(-c2cnn(C)c2COC(=O)N(C)C2CCCC2)cnc1O[C@H]1CCC[C@H](C(=O)O)C1 (racemic) [Compound 66] | 8.21 h | 1.56 h | 11.7 h | < 0.05 µM |  | B (B: 30-50%) |
| CN(C(=O)OCc1c(-c2ncc(O[C@H]3CCC[C@H](C(=O)O)C3)cn2)cnn1C)C1CCCC1 (racemic) [Compound 100, (+/−)-(1S,3S)-3-((2-(5-(((cyclopentyl(methyl)carbamoyl)oxy)methyl)-1-methyl-1H-pyrazol-4-yl)pyrimidin-5-yl)oxy)cyclohexane-1-carboxylic Acid] |  |  |  | 0.3 to 10 µM | > 200 µM | B (B: 30-50%) |
| Cc1noc(-c2ccc(C3(C(=O)O)CC3)cc2)c1NC(=O)O[C@H](C)c1ccccc1 [Compound 3] |  |  |  | 0.3 to 10 µM | > 200 µM | C (C: 0-30%) |
| Cc1noc(-c2ccc(O[C@H]3CCC[C@H](C(=O)O)C3)c(C(F)(F)F)n2)c1COC(=O)N(C)C1CCCC1 [Compound 37] |  |  |  | < 0.05 µM | > 200 µM | A (A: 50-70%) |
| Cc1nc(-c2c(F)nn(C)c2COC(=O)N(C)C2CCCC2)ccc1O[C@H]1CCC[C@H](C(=O)O)C1 [Compound 57] |  |  |  | < 0.05 µM | > 200 µM | A (A: 50-70%) |

Second part, led by results:

| half-life [1] | half-life [2] | half-life [4] | IC50 [6] | Structure (SMILES) | CC50 at 48 h [3] | Cell migration inhibition rate (%) [5] |
| --- | --- | --- | --- | --- | --- | --- |
| 1.81 h | 0.0468 h | 2.48 h | < 0.05 µM | Cc1onc(-c2ccc(O[C@H]3CCC[C@H](C(=O)O)C3)cc2)c1COC(=O)N(C)C1CCCC1 (racemic) [Compound 7, (+/−)-(1S,3S)-3-(4-(4-(((cyclopentyl(methyl)carbamoyl)oxy)methyl)-5-methylisoxazol-3-yl)phenoxy)cyclohexane-1-carboxylic Acid] | > 200 µM | A (A: 50-70%) |
| 10.3 h | 1.81 h |  | < 0.05 µM | Cc1nc(-c2cnn(C)c2COC(=O)N(C)C2CCCC2)ccc1O[C@H]1CCC[C@H](C(=O)O)C1 (racemic) [Compound 16, (+/−)-(1S,3S)-3-((6-(5-(((cyclopentyl(methyl)carbamoyl)oxy)methyl)-1-methyl-1H-pyrazol-4-yl)-2-methylpyridin-3-yl)oxy)cyclohexane-1-carboxylic Acid] | > 200 µM | A (A: 50-70%) |
|  |  |  | < 0.05 µM | Cc1nc(-c2cnnc(C)c2COC(=O)N(C)C2CCCC2)ccc1O[C@H]1CCC[C@H](C(=O)O)C1 (racemic) [Compound 52] | > 200 µM | B (B: 30-50%) |
|  |  |  | < 0.05 µM | Cc1nc(-c2[nH]nc(C)c2COC(=O)N(C)C2CCCC2)ccc1O[C@H]1CCC[C@H](C(=O)O)C1 (racemic) [Compound 53] | > 200 µM | A (A: 50-70%) |
|  |  |  | < 0.05 µM | Cc1nc(-n2cnc(C)c2COC(=O)N(C)C2CCCC2)ccc1O[C@H]1CCC[C@H](C(=O)O)C1 (racemic) [Compound 54] | > 200 µM | B (B: 30-50%) |
|  |  |  | < 0.05 µM | Cc1nc(-c2ccn(C)c2COC(=O)N(C)C2CCCC2)ccc1O[C@H]1CCC[C@H](C(=O)O)C1 (racemic) [Compound 55] | > 200 µM | A (A: 50-70%) |
|  |  |  | < 0.05 µM | Cc1nc(-c2c(Cl)nn(C)c2COC(=O)N(C)C2CCCC2)ccc1O[C@H]1CCC[C@H](C(=O)O)C1 (racemic) [Compound 56, (+/−)-(1S,3S)-3-((6-(3-chloro-5-(((cyclopentyl(methyl)carbamoyl)oxy)methyl)-1-methyl-1H-pyrazol-4-yl)-2-methylpyridin-3-yl)oxy)cyclohexane-1-carboxylic Acid] | > 200 µM | A (A: 50-70%) |
|  |  |  | < 0.05 µM | Cc1nc(-c2c(C#N)nn(C)c2COC(=O)N(C)C2CCCC2)ccc1O[C@@H]1CCC[C@@H](C(=O)O)C1 (racemic) [Compound 58] | > 200 µM | A (A: 50-70%) |
|  |  |  | < 0.05 µM | COc1nc(-c2cnn(C)c2COC(=O)N(C)C2CCCC2)ccc1O[C@H]1CCC[C@H](C(=O)O)C1 (racemic) [Compound 59, (+/−)-(1S,3S)-3-((6-(5-(((cyclopentyl(methyl)carbamoyl)oxy)methyl)-1-methyl-1H-pyrazol-4-yl)-2-methoxypyridin-3-yl)oxy)cyclohexane-1-carboxylic Acid] | > 200 µM | B (B: 30-50%) |
